In US9775890B2, “Factor Xa inhibitor used with liver-derived progenitor cells” (UNIVERSITÉ CATHOLIQUE DE LOUVAIN, priority 2012, dated 2017):
Structures can show the parent of a compound that is named as a salt. Where two headings read alike, the source gives them in different places.

How the values were obtained:
cells with PCA = assay: Analogous thromboelastometry experiments with different direct factor Xa inhibitors plus direct thrombin inhibitor; assay type: cell-based; settings: present tense
Experimental: (§1) Measurements were performed on a ROTEM® delta analyser (Pentapharm, Munich, Germany). ROTEM® assesses the kinetics and quality of clot formation and clot lysis in real-time. The clotting time (CT) is defined as the period of time from the start of the analysis until the start of clot formation, normally until the 2 mm amplitude is reached. The clot formation time is defined as the period until the 20 mm amplitude is reached. The alpha angle is defined as the angle between the centre line and a tangent to the curve through the 2 mm amplitude point, which is the end of the CT. The maximum amplitude of the curve is defined as the maximum clot firmness. The maximum of lysis represents the maximum fibrinolysis detected during the measurement. We focused on CT.
(§2) Briefly, after a short rest period, 300 μl of whole blood was pipetted into a cup pre-warmed at 37° C. Suspended cells were subsequently added to whole blood (5×10exp5 cells if no specification). Twenty μl of trigger reagent containing tissue factor (TF) (Innovin, Siemens, Marburg, Germany. Final dilution 1:17000/0.35 pM) diluted in Owren buffer (Siemens, Marburg, Germany) was then added to the cell-blood mixture followed by the necessary addition of 20 μl of 0.2 M CaCl2. After calcium addition, measurements started automatically. The procoagulant activity (PCA) of cells was also determined without addition of Innovin.
For modulation of PCA assays, cells were suspended in albumin 5% with or without non-fractionated heparin (Heparin Leo®, Leo). […] Dose extrapolation was based on circulating blood volume according to weight (70 ml/kg).

hALPCs = assay: Thromboelastometry (ROTEM) clotting time: modulation of procoagulant activity (PCA) of hALPCs in whole blood; assay type: cell-based, human; settings: for Clotting time (CT) of whole blood with hALPCs in presence of anticoagulant drug: ROTEM, 300 μl citrated whole blood, 5×10exp5 hALPCs, added TF, heparin 10 U/mL in cell suspension, hirudin 5.7 μg/ml; for Control of hALPCs PCA by thrombin inhibitor, increased dose (2× or 5×): FIGS. 14 and 15, dose 2× or 5×
Experimental: as §1
as §2, with “Innovin. To ascertain the role of TF in this coagulation model, cells were pre-incubated at room temperature for 10 minutes with either 0.2 mg/mL mAb anti-human TF IgG1 (American Diagnostica) or 0.2 mg/mL mAb mouse IgG1 (clone11711.11; RnD Systems, Abingdon, United Kingdom) before extensive washing in albumin 5% and thromboelastometry assay.” for “Innovin.”
For modulation of PCA assays, cells were suspended in albumin 5% with or without non-fractionated heparin (Heparin Leo®, Leo). The following were then added to blood or plasma: rivaroxaban (Xarelto®, Bayer Schering) at a concentration of 1 μg/ml following published data (Samama et al. (2010), Thromb Haemost, 103(4):815-825), hirudin (Refludan®, Celgene Europe Limited) at a concentration of 5.7 μg/ml (clinical dose extrapolation 0.4 mg/kg), bivalirudin (Angiox®, The Medicines Company) at a concentration of 10.7 μg/ml (clinical dose extrapolation 0.75 mg/kg). Dose extrapolation was based on circulating blood volume according to weight (70 ml/kg).

citrated whole blood = assay: Thromboelastometry (ROTEM) of control blood in absence of cells with anticoagulant drug; parameters: species or system human; settings: no cells
Experimental: as §1
as §2, with “Innovin. […]” for “Innovin.”

hepatocytes = assay: Thromboelastometry (ROTEM): modulation of PCA of hepatocytes in whole blood; assay type: cell-based, human
Experimental: as §1
as §2, with “Innovin. […]” for “Innovin.”

Row | Compound | Modulation of PCA of cells by concomitant use of the direct factor Xa inhibitor with a direct thrombin inhibitor (hirudin or bivalirudin) (cells with PCA) | further results
1 | C[C@@H](C(=O)N1CCOCC1)N1CC[C@H](NS(=O)(=O)/C=C/c2ccc(Cl)s2)C1=O [GW813893] | able to modulate PCA | –
2 | O=C(NC[C@H]1CN(c2ccc(N3CCOCC3=O)cc2)C(=O)O1)c1ccc(Cl)s1 [rivaroxaban, (S)-5-chloro-N-{[2-oxo-3-[4-(3-oxomorpholin-4-yl)phenyl]oxazolidin-5-yl]methyl}thiophene-2-carboxamide] | – | Modulation of hALPCs PCA (in words) (hALPCs; ROTEM whole blood, rivaroxaban 1 μg/ml, bivalirudin 10.7 μg/ml, heparin 10 U/mL): ineffective
3 | antistasin | able to modulate PCA | –
4 | N=C(N)N1CCc2ccc(OCC3(C(=O)O)CCN(c4ccncc4)CC3)cc2C1 [JTV-803] | able to modulate PCA | –
5 | CO[C@H]1C[C@@H](C(=O)Nc2ccc(-n3ccccc3=O)cc2F)N(C(=O)Nc2ccc(Cl)cc2)C1 [eribaxaban] | able to modulate PCA | –
6 | CO[C@H]1O[C@H](COS(=O)(=O)O)[C@@H](O[C@@H]2O[C@@H](C(=O)O)[C@@H](O[C@H]3O[C@H](COS(=O)(=O)O)[C@@H](O[C@@H]4O[C@H](C(=O)O)[C@@H](O[C@H]5O[C@H](COS(=O)(=O)O)[C@@H](O)[C@H](O)[C@H]5NS(=O)(=O)O)[C@H](O)[C@H]4O)[C@H](OS(=O)(=O)O)[C@H]3NS(=O)(=O)O)[C@H](O)[C@H]2OS(=O)(=O)O)[C@H](O)[C@H]1NS(=O)(=O)O [fondaparinux, 2-deoxy-6-O-sulfo-2-(sulfoamino)-α-D-glucopyranosyl-(1→4)-O-β-D-glucopyranuronosyl-(1→4)-O-2-deoxy-3,6-di-O-sulfo-2-(sulfoamino)-α-D-glucopyranosyl-(1→4)-O-2-O-sulfo-α-L-idopyranouronosyl-(1→4)-O-methyl-2-deoxy-6-O-sulfo-2-(sulfoamino)-α-D-glucopyranoside, decasodium salt] | – | Clotting time (CT) of whole blood with hALPCs in presence of anticoagulant drug (hALPCs; bivalirudin 10.7 μg/ml): 209.7 ± 149.7 s
7 | COc1ccccc1N1CCN(C(=O)CNC(=O)C(Nc2cccc(C(=N)N)c2)c2ccccc2O[C@@H]2O[C@H](CO)[C@@H](O)[C@H](O)[C@H]2O)CC1 (stereo partly shown) [MCM-09] | able to modulate PCA | –
8 | CN(C)Cc1nccn1-c1ccc(NC(=O)c2cc(C(F)(F)F)nn2-c2ccc3onc(N)c3c2)c(F)c1 [razaxaban] | able to modulate PCA | –
9 | CN1CCC(N2CCN(C(=O)[C@H](NC(=O)c3ccc4cc[nH]c4c3)c3ccccc3)CC2)CC1 [LY517717] | able to modulate PCA | –
10 | bivalirudin | – | CT of control blood (in absence of cells) (citrated whole blood; bivalirudin 10.7 μg/ml, unit not printed at the place (other CT in sec)): 1075.0±107.2; Control of hALPCs PCA by thrombin inhibitor, increased dose (2× or 5×) (hALPCs; ROTEM whole blood): only a partial control; Clotting time (CT) of whole blood with hALPCs in presence of anticoagulant drug (hALPCs; bivalirudin 10.7 μg/ml): 380.8 ± 114.7 s; Control of hepatocytes PCA (in words) (hepatocytes; ROTEM whole blood, FIG. 6D): controlled
11 | CC(=N)N1CCC(Oc2ccc(N(Cc3ccc4ccc(C(=N)N)cc4c3)S(=O)(=O)CC(=O)O)cc2)CC1 [YM-60828] | able to modulate PCA | –
12 | COc1ccc(-n2nc(C(N)=O)c3c2C(=O)N(c2ccc(N4CCCCC4=O)cc2)CC3)cc1 [apixaban, 1-(4-methoxyphenyl)-7-oxo-6-[4-(2-oxopiperidin-1-yl)phenyl]-4,5-dihydropyrazolo[5,4-c]pyridine-3-carboxamide] | able to modulate PCA | –
13 | hirudin | – | Coagulation of blood in absence of cells (in words) (citrated whole blood; thromboelastometry stopped after 1800 sec): no measurable coagulation was observed; Control of hALPCs PCA by thrombin inhibitor, increased dose (2× or 5×) (hALPCs; ROTEM whole blood): only a partial control; Clotting time (CT) of whole blood with hALPCs in presence of anticoagulant drug (hALPCs; bivalirudin 10.7 μg/ml): 256.3 ± 11.8 s; Control of hepatocytes PCA (in words) (hepatocytes): controlled
14 | COc1ccc(C(=O)Nc2cccc(O)c2NC(=O)c2ccc(N3CCCN(C)CC3)cc2)cc1 [darexaban] | able to modulate PCA | –
15 | CC(=N)N1CCC(c2ccc(NC(=O)CN(Cc3cccc(OCC(=O)O)c3)c3cccc(C(=N)N)c3)cc2)CC1 [KFA-144] | able to modulate PCA | –
16 | O=C1CN(S(=O)(=O)/C=C/c2ccc(Cl)s2)CCN1Cc1cc2cnccc2[nH]1 [RPR-209685] | able to modulate PCA | –
17 | O=C([C@H](O)CS(=O)(=O)c1ccc2cc(Cl)ccc2c1)N1CCC(N2CCCNC2=O)CC1 [letaxaban] | able to modulate PCA | –
18 | COc1ccc(NC(=O)c2ccc(C(=N)N(C)C)cc2)c(C(=O)Nc2ccc(Cl)cn2)c1 [betrixaban, N-(5-chloropyridin-2-yl)-2-([4-(N,N-dimethylcarbamimidoyl)benzoyl]amino)-5-methoxybenzamide] | able to modulate PCA | –
19 | CC(=N)N1CC[C@H](Oc2ccc([C@H](Cc3ccc4ccc(C(=N)N)cc4c3)C(=O)O)cc2)C1 [DX9065a] | able to modulate PCA | –
